Assay results taken from US8399206B2, “Methods for diagnosis, prognosis and methods of treatment” (Nodality, Inc., priority 2008, dated 2013).

Legend:
Assay type in all cases: cell-based, human
AML leukemic cells = assay: Apoptosis/cytostasis arm: 48-hr kinase inhibitor incubation of AML cells (cleaved PARP, CyclinB1, p-Histone H3); details: 1 μM; two samples with the greatest SCF and G-CSF signaling response and most robust proliferation
Method: The TKIs impact was measured on distal functional readouts, including apoptosis (cleaved PARP) and cell cycle (CyclinB1-S/G2 phase; p-Histone H3-M phase). All results were compared with results from bone marrow samples from healthy donors (N=6).

[1] = tested on: pediatric AML leukemic blasts; assay: SCNP assay on pediatric AML bone marrow samples, POG trial 9421 (Example 11)
Method: SCNP assays were performed on 77 bone marrow samples from pediatric AML patients enrolled in POG trial 9421 of which 67 were evaluable/had sufficient data for analysis and were enriched for non-responders (NR). 80 combinations of modulators and intra-cellular proteins (signaling nodes) were investigated including nodes involved in the phosphoinositide 3-kinase (PI3K), Janus Kinases (JAK), signal transducers and activators of transcription (STAT) and the DNA damage response and apoptosis pathways. Basal and modulated protein levels in leukemic blasts were measured using several metrics (e.g., fold change, total level of phosphorylation, and a rank based method Uu measuring the proportion of cells that shift from baseline), and nodes were examined in univariate and multivariate analyses for their ability to discriminate between AML responsive (CR, n=46) and non-responsive (NR, n=21) to anthracycline/cytarabine-based induction therapy. Furthermore, nodes were examined for their ability to identify patients likely to be in complete continuous remission (CCR, n=23) or relapse (CR-Rel, n=23) within 4 years.

AML blasts = assay: SCNP / phospho-flow modulated signaling assay, AML study No. 1 (PBMC at diagnosis, CR vs NR)
From the text: The present illustrative example represents how to analyze cells in one embodiment of the present invention. There are several steps in the process, such as the stimulation step, the staining step and the flow cytometry step. The stimulation step of the phospho-flow procedure can start with vials of frozen cells and end with cells fixed and permeabilized in methanol. Then the cells can be stained with an antibody directed to a particular protein of interest and then analyzed using a flow cytometer.
Frozen cells are thawed in a 37° C. water bath and gently resuspended in the vial and transferred to the 15 mL conical tube. The 15 mL tube is centrifuged at 930 RPM (200×g) for 8 minutes at room temperature. The supernatant is aspirated and the pellet is gently resuspended in 1 mL media A. The cell suspension is filtered through a 70 um cell strainer into a new 15 mL tube. The cell strainer is rinsed with 1 mL media A and another 12 ml of media A into the 15 mL tube. The cells are mixed into an even suspension. A 20 μL aliquot is immediately removed into a 96-well plate containing 180 μL PBS+4% FBS+CD45 Alexa 700+PI to determine cell count and viability post spin. After the determination, the 15 mL tubes are centrifuged at 930 RPM (200×g) for 8 minutes at room temperature. The supernatant is aspirated and the cell pellet is gently resuspended in 4 mL PBS+4 μL Amine Aqua and incubated for 15 min in a 37° C. incubator. 10 mL RPMI+1% FBS is added to the cell suspension and the tube is inverted to mix the cells. The 15 mL tubes are centrifuged at 930 RPM (200×g) for 8 minutes at room temperature. The cells are resuspended in Media A at the desired cell concentration (1.25×10^6/mL). For samples with low numbers of cells (<18.5×10^6), the cells are resuspended in up to 15 mL media. For samples with high numbers of cells (>18.5×10^6), the volume is raised to 10 mL with media A and the desired volume is transferred to a new 15 mL tube, and the cell concentration is adjusted to 1.25×10^6 cells/ml. 1.6 mL of the above cell suspension (concentration at 1.25×10^6 cells/ml) is transferred into wells of a multi-well plate. From this plate, 80 ul is dispensed into each well of a subsequent plate. The plates are covered with a lid (Nunc) and placed in a 37° C. incubator for 2 hours to rest.
A concentration for each stimulant that is five folds more (5×) than the final concentration is prepared using Media A as diluent. 5× stimuli are arrayed into wells of a standard 96 well v-bottom plate that correspond to the wells on the plate with cells to be stimulated.
Adding the stimulant: The cell plate(s) are taken out of the incubator and placed in a 37° C. water bath next to the pipette apparatus. The cell plate is taken from the water bath and gently swirled to resuspend any settled cells. With pipettor, the stimulant is dispensed into the cell plate and vortexed at “7” for 5 seconds. The deep well plate is put back into the water bath.
Adding Fixative: 200 μl of the fixative solution (final concentration at 1.6%) is dispensed into wells and then mixed on the titer plate shaker on high for 5 seconds. The plate is covered with foil sealer and incubated in a 37° C. water bath for 10 minutes. The plate is spun for 6 minutes at 2000 rpm at room temperature. The cells are aspirated using a 96 well plate aspirator (VP Scientific). The plate is vortexed to resuspend cell pellets in the residual volume. The pellet is ensured to be dispersed before the Methanol step (see cell permeabilization) or clumping will occur.
Cell Permeabilization: Permeability agent, for example methanol, is added slowly and while the plate is vortexing. To do this, the cell plate is placed on titer plate shaker and made sure it is secure. The plate is set to shake using the highest setting. A pipetter is used to add 0.6 mls of 100% methanol to the plate wells. The plate(s) are put on ice until this step has been completed for all plates.

AML BMMC leukemic blasts [2] = assay: SCNP modulated signaling assay, AML study No. 2 (BMMC, CR vs NR, clinical sub-groups)
Method: Two independent sets of cryopreserved samples were analyzed sequentially. The first set consisted of 35 peripheral blood mononuclear cell (PBMC) samples derived from AML patients. The second set consisted of 134 cryopreserved bone marrow mononuclear cell (BMMC) samples derived from AML patients. These samples were the same samples used in the previous examples. Sample inclusion criteria required collection prior to initiation of induction chemotherapy, AML classification by the French-American-British (FAB) criteria as M0 through M7 (excluding M3) and availability of clinical annotations.
In the first study, induction chemotherapy consisted of at least one cycle of standard cytarabine-based induction therapy (i.e. daunorubicin 60 mg/m^2×3 days, cytarabine 100-200 mg/m^2 continuous infusion×7 days); responses were measured after one cycle of induction therapy. In the second study, cytarabine (200 mg/m^2 to 3 g/m^2) was used in combination with an anthracycline (daunorubicin or idarubicin) or an additional anti-metabolite (e.g. fludarabine or troxacitabine), and sometimes, an experimental agent (Table 16). […] Standard clinical and laboratory criteria were used for defining complete response (CR) in both studies. […] Classified as “CRp,” these samples were included in the CR group for all primary analysis. The univariate analyses were also repeated with the CRp patients classified into the NR sample group for sensitivity analysis.
Cyropreserved samples were thawed at […], washed and centrifuged in PBS, 10% FBS and 2 mM EDTA. The cells were re-suspended, filtered to remove debris and washed in RPMI cell culture media, 1% FBS, then stained with Live/Dead Fixable Aqua Viability Dye to distinguish non-viable cells. The cells were then re-suspended in RPMI, 1% FBS, aliquoted to 100,000 cells/condition and rested for 1-2 hours at 37° C. prior to SCNP assays. Each condition included two to five phenotypic markers for cell population gating (eg, CD45, CD33), up to three intracellular stains or up to three additional surface markers or control antibodies for an eight-color flow cytometry assay.
Functional assays were performed as previously described. Cells were incubated with modulators (Table 18), at 37° C. for 3-15 minutes, fixed with 1.6% paraformaldehyde (final concentration) for 10 minutes at 37° C., pelleted and permeabilized with 100% ice-cold methanol and stored at −80° C.
Data was acquired using FACS DIVA software on both LSR II and CANTO II Flow Cytometers (BD). For all analyses, dead cells and debris were excluded by forward scatter (FSC), side scatter (SSC), and Amine Aqua Viability Dye measurement. Leukemic cells were identified as cells that lacked the characteristics of mature lymphocytes (CD45^++, CD33^−) and that fit the CD45 and CD33 versus right-angle light-scatter characteristics consistent with myeloid leukemia cells.
The median fluorescence intensity (MFI) was computed for each node from the fluorescence intensity levels for the cells in the myeloid population. The MFI values were then used to compute a variety of metrics by comparing them to baseline or background values, including the unmodulated condition, cellular autofluorescence and antibody isotype controls. The following metrics were computed: • 1. Basal MFI (“Basal”)=log2(MFIUnmodulated Stained)−log2(MFIGated Unstained (Autofluoresence)), designed to measure the basal levels of a certain protein under unmodulated conditions. • 2.

[3] = tested on: FLT3-WT and FLT3-ITD AML leukemic blasts; assay: SCNP signaling and apoptosis in FLT3-WT versus FLT3-ITD AML samples (Example 9); details: FLT3-ITD vs FLT3-WT samples, study 1 and study 2
From the text: This example identifies intracellular signaling pathways associated with FLT3 ITD in two independent cohorts of diagnostic AML samples that serve as an improvement over current clinical tools in the identification of clinically meaningful altered FLT 3 and has implications for cohort selection in the development of FLT3 inhibitors. The two cohorts of data were further analyzed to investigate the differences in signaling between FLT-WT and FLT-ITD samples. The first cohort of data (“study 1”) comprised the 34 samples from University Health Network outlined in Table 16 and Table 19. The second cohort of data (“study 2”) comprised an 83 sample subset of MD Anderson Cancer Center data outlined in Table 16 (and Table 19). The 83 sample subset was selected based on known FLT3 mutation status. Both cohorts of data were used to investigate differences in FLT3 signaling between leukemic blasts and control data.
In order to further characterize wild-type FLT receptor signaling in AML, we compared FLT3L-induced signaling in the myeloblast population of control BMMC samples with FLT3L-induced signaling in the leukemic blast population of FLT3-WT AML samples.
Univariate analysis, unadjusted for multiple testing, was performed sequentially and independently on the two study cohorts in order to identify signaling nodes that distinguished with FLT3-ITD from FLT3-WT AML patient samples. […] Results from both studies include the AUC, Wilcoxon and t-test p-value for each node, and the number/mean value of the samples in the FLT3-ITD and FLT3-WT AML groups with common stratifying nodes summarized in FIG. 23. Although the majority of the discussion herein is directed to nodes that had similar reponses within the two cohorts of data, some differences were observed between the two cohorts of data. These differences may have been due to the different clinical characteristics of the two cohorts of data, specifically biases in the data from UHN.

AML BMMC leukemic blasts [4] = assay: Functional apoptosis assay, AML study No. 2 (etoposide or Ara-C and daunorubicin, 24 hours); details: patients younger than 60 years old
Method: Multi-parameter flow cytometric analysis was performed on BMMC samples taken at diagnosis from 61 AML patients. The samples were balanced for complete response (CR) and non-responders (NR) after 1 to 3 cycles of induction therapy and de novo versus secondary AML. Nodes in Tables 2 to 10 were examined.
Functional assays were performed as previously described. […]
The median fluorescence intensity (MFI) was computed for each node from the fluorescence intensity levels for the cells in the myeloid population. The MFI values were then used to compute a variety of metrics by comparing them to baseline or background values, including the unmodulated condition, cellular autofluorescence and antibody isotype controls. The following metrics were computed: • 1. Basal MFI (“Basal”)=log2(MFIUnmodulated Stained)−log2(MFIGated Unstained (Autofluoresence)), designed to measure the basal levels of a certain protein under unmodulated conditions. • 2. Fold Change MFI (“Fold”)=log2(MFIModulated Stained)−log2(MFIUnmodulated Stained), a measure of the change in the activation state of a protein under modulated conditions. • 3. Total Phospho MFI (“TotalPhospho”)=log2(MFIModulated Stained)−log2(MFIGated Unstained (Autofluorescence)), a measure of the total levels of a protein under modulated conditions. • 4. […]

[5] = Study No. 2, all patients, CR samples
[6] = Study No. 2, all patients, NR samples
[7] = Study No. 1 sensitivity analysis, CR samples
[8] = Study No. 1 sensitivity analysis, NR samples incl. CRp

In the case of `C[C@@H]1CCN(C(=O)CC#N)C[C@@H]1N(C)c1ncnc2[nH]ccc12` [CP-690,550], the “sensitivity to kinase inhibitor as measured by cytostasis readouts” value (AML leukemic cells) was “most sensitive”.
For `OO` [H2O2, hydrogen peroxide, reference compound], the “p-Akt and p-PLC gamma levels with hydrogen peroxide as modulator” value ([1]; NR samples) was “lower p-Akt and p-PLC gamma levels in NR samples”, the “phosphorylated PLCγ2 and SLP-76 upon H2O2 treatment” value (AML blasts; CR patients versus NR patients) was “attained higher levels of phosphorylated PLCγ2 and SLP-76 upon H2O2 treatment” and the “p-Akt levels upon H2O2 treatment” value (AML blasts; NR vs CR patient blasts) was “higher levels of p-Akt in NR patients versus CR patients”. For the same compound, the “p-AKT and p-PLCγ2 following H2O2 treatment” value (AML BMMC leukemic blasts [2]; NR samples, older patient cohort (>=60 years)) was “increases in p-AKT and p-PLCγ2”, the “Mean Value of CRs, p-Akt Fold” value (AML BMMC leukemic blasts [2]; [5]) was 0.68 and the “Mean Value of NRs, p-Akt Fold” value (AML BMMC leukemic blasts [2]; [6]) was 0.91. For the same compound, the “H2O2 and FLT3L responses, NR vs CR” value (AML BMMC leukemic blasts [2]; patients younger than 60 years old (so in the source)) was “NRs have higher H2O2 and FLT3L responses than CRs”.
`COc1cc([C@@H]2c3cc4c(cc3[C@@H](O[C@@H]3O[C@@H]5CO[C@@H](C)O[C@H]5[C@H](O)[C@H]3O)[C@H]3COC(=O)[C@H]23)OCO4)cc(OC)c1O` [Etoposide] was tested, and the “in vitro apoptosis (etoposide→c-PARP|Total)” value [3] was “more sensitive to in vitro apoptosis than FLT3-WT samples”, the “apoptotic response (c-PARP, p-Chk2), CR vs NR” value ([1]; CR n=46, NR n=21) was “higher levels of apoptosis in CR samples than in NR samples” and the “induced apoptosis, CR vs NR” value (AML BMMC leukemic blasts [4]) was “CRs induce apoptosis to Etoposide or Ara-C/Daunorubicin more than NRs”.
`C/C=C(/C)C(=O)O[C@H]1C(C)=C2[C@H]([C@@H]1OC(=O)CCCCCCC)[C@@](C)(OC(C)=O)C[C@H](OC(=O)CCC)[C@@]1(O)[C@H]2OC(=O)[C@@]1(C)O` [Thapsigargin, reference compound] was tested, and the “induction of p-Erk, p-CREB and p-S6” value ([1]; relapse vs complete continuous remission (CCR)) was “less in CR-Rd than in CCR samples”, the “Mean Value of CRs, p-CREB Total Phospho” value (AML blasts; [7]) was 1.79 and the “Mean Value of CRs, p-S6 Fold” value (AML blasts; [7]) was 0.03. For the same compound, the “Mean Value of CRs, p-S6 Total Phospho” value (AML blasts; [7]) was 0.31, the “Mean Value of NRs, p-CREB Total Phospho” value (AML blasts; [8]) was 2.77 and the “Mean Value of NRs, p-S6 Fold” value (AML blasts; [8]) was 0.31. The “Mean Value of NRs, p-S6 Total Phospho” value (AML blasts; [8]) was 0.67, the “Mean Value of CRs, p-Erk Fold” value (AML BMMC leukemic blasts [2]; [5]) was 1.22 and the “Mean Value of NRs, p-Erk Fold” value (AML BMMC leukemic blasts [2]; [6]) was 0.36.
